From PubChem BioAssay (NCI)
Where “and” joins values, the source holds several entries; their conditions need not be identical. Equal entries are not always repeated.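 Following 48 hours of exposure in 96-well plates, responses at five concentrations were used to interpolate endpoints linearly. At the GI50, growth is halved. TGI: total growth inhibition.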

What was measured:
Assay in all cases: NCI anticancer screen, dose series, 48 h
K-562 leukemia = test system: K-562 leukemia
MALME-3M melanoma = test system: MALME-3M melanoma
HS 578T breast = test system: HS 578T breast
U251 CNS = test system: U251 CNS
NCI-H460 lung = test system: NCI-H460 lung
IGROV1 ovarian = test system: IGROV1 ovarian
PC-3 prostate = test system: PC-3 prostate
HT29 colon = test system: HT29 colon
SF-295 CNS = test system: SF-295 CNS
SN12C renal = test system: SN12C renal

| SMILES | GI50 (K-562 leukemia) | TGI (K-562 leukemia) | GI50 (MALME-3M melanoma) | TGI (MALME-3M melanoma) | GI50 (HS 578T breast) | TGI (HS 578T breast) | GI50 (U251 CNS) | TGI (U251 CNS) | GI50 (NCI-H460 lung) | TGI (NCI-H460 lung) | GI50 (IGROV1 ovarian) | TGI (IGROV1 ovarian) | GI50 (PC-3 prostate) | TGI (PC-3 prostate) | GI50 (HT29 colon) | TGI (HT29 colon) | GI50 (SF-295 CNS) | TGI (SF-295 CNS) | GI50 (SN12C renal) | TGI (SN12C renal) |
| --- | --- | --- | --- | --- | --- | --- | --- | --- | --- | --- | --- | --- | --- | --- | --- | --- | --- | --- | --- | --- |
| O=C([O][Sn]([O]C(=O)c1ccccn1)([c]1ccccc1)[c]1ccccc1)c1ccccn1 | 0.405 µM | 6.37 µM | 1.61 µM | 3.49 µM | 2.32 µM | 8.88 µM | 1.95 µM | 4.62 µM | 12.2 µM | 26.2 µM | 1.83 µM | 4.03 µM | 11.8 µM | 25.6 µM | 3.06 µM | 7.97 µM | 16.1 µM | 31.9 µM | 13.8 µM | 26.9 µM |
| C=C1C(=O)OC2CC(C)C3CC(O)OC(OCC)C3(C)CC12 (centres undefined) | – | > 57.4 µM | – | 23.3 µM | – | 72.8 µM | – | 33.8 µM | – | 38.6 µM | – | 48.1 µM | – | 45.9 µM | – | 38.5 µM | – | 90.6 µM | – | 33.2 µM |
| CC(C)=CCC(OC(=O)C=C(C)C)C1=CC(=O)c2c(O)ccc(O)c2C1=O (centres undefined) | 0.0709 µM | 1.13 µM and 1.35 µM | 0.694 µM | 3.09 µM and 1.07 µM | 14.3 µM | 65.2 µM | 1.71 µM | 3.61 µM and 9.1 µM | 5.21 µM | 21.1 µM and 6.53 µM | – | 4.42 µM | 1.55 µM | 8.74 µM | 2.49 µM | 8.41 µM and 4.43 µM | 2.15 µM | 20.9 µM and 6.13 µM | 1.9 µM | 3.94 µM and 2.92 µM |
| CC1=Nc2ccccc2/C1=C\c1c(C)[nH]c2ccccc12 | – | > 100 µM | – | 30.5 µM | – | 47.2 µM | – | 33.3 µM | – | 44.6 µM | – | 25.4 µM | – | 39.2 µM | – | 25.4 µM | – | 43 µM | – | 72.5 µM |
| Cc1nc2ccc(NC(=O)CCNC(=O)CCCc3ccc(CC(C(=O)O)C(=O)O)cc3)cc2s1 | > 100 µM | > 100 µM | > 100 µM | > 100 µM | > 100 µM | > 100 µM | > 100 µM | > 100 µM | > 100 µM | > 100 µM | > 100 µM | > 100 µM | > 100 µM | > 100 µM | > 100 µM | > 100 µM | > 100 µM | > 100 µM | > 100 µM | > 100 µM |
| OCc1ccc(-c2cscc2-c2ccc(CO)o2)o1 | 7.02 µM | > 100 µM | > 100 µM | > 100 µM | > 78.3 µM | > 100 µM | 44.1 µM | > 100 µM | 1.34 µM | 5.92 µM | 0.576 µM | 6.47 µM | > 75 µM | > 100 µM | 7.03 µM | > 100 µM | 0.923 µM | 20.3 µM | > 100 µM | > 100 µM |
| O=c1/c(=C\c2ccc(F)cc2)sc2n1C(c1ccc(F)cc1)C1=C(N=2)c2ccc3ccccc3c2OCC1 (centres undefined) | > 29.5 µM | > 100 µM | > 100 µM | > 100 µM | > 100 µM | > 100 µM | > 100 µM | > 100 µM | 14.2 µM | > 100 µM | > 100 µM | > 100 µM | > 52.8 µM | > 100 µM | > 100 µM | > 100 µM | > 100 µM | > 100 µM | > 100 µM | > 100 µM |
| COc1ccc(-c2nc(-c3nc4ccc(F)cc4[nH]3)c3ccccn23)cc1 | 14 µM | > 100 µM | 5.32 µM | 27.1 µM | 8.54 µM | > 100 µM | 13.6 µM | 51.3 µM | 6.83 µM | > 100 µM | 6.63 µM | 47.2 µM | 6.14 µM | 46.9 µM | 7.13 µM | > 100 µM | – | – | 13.3 µM | > 100 µM |
| COc1cc2c(cc1O)CC1c3c(cc(O)c(OC)c3-2)CCN1C (centres undefined) | – | > 100 µM | – | > 100 µM | – | > 100 µM | – | > 100 µM | – | > 100 µM | – | > 100 µM | – | > 100 µM | – | > 100 µM | – | > 100 µM | – | > 100 µM |
| CC(C)Cc1ccc(C(C)CC2=CCC(CN(C)C)C2=O)cc1 (centres undefined) | – | 4.04 µM | – | 13.1 µM | – | 40.6 µM | – | 13.6 µM | – | 48.9 µM | – | 24 µM | – | 28.4 µM | – | 17.5 µM | – | 32.1 µM | – | 20 µM |
| COc1ccc(C(O)c2cc3c(N)c(C(=O)Nc4cccc(Cl)c4)sc3nc2C)cc1 (centres undefined) | 1.03 µM | > 37.5 µM | 2.48 µM | > 73.4 µM | 0.825 µM | – | 1.14 µM | > 37.8 µM | 1.06 µM | 5.53 µM | 2.52 µM | > 56 µM | 1.56 µM | > 40.4 µM | 1.08 µM | > 33.4 µM | 1.12 µM | > 22.7 µM | 2.02 µM | > 72.7 µM |
| C1CC2CN(CCCN3CCOCC3)C(C1)O2 (centres undefined) | – | > 100 µM | – | > 100 µM | – | > 100 µM | – | > 100 µM | – | > 100 µM | – | > 100 µM | – | > 100 µM | – | > 100 µM | – | > 100 µM | – | > 100 µM |
| Cc1cc(O)c(C2=NN(c3ccc(S(N)(=O)=O)cc3)C(c3ccc(Cl)cc3)C2)c(C)c1Cl (centres undefined) | 2.24 µM | 11.5 µM | 14.8 µM | 35.2 µM | 3.45 µM | 20 µM | 3.34 µM | 13.5 µM | 2.53 µM | 7.24 µM | 6.19 µM | 22.3 µM | 4.44 µM | 16.8 µM | 3.3 µM | 11 µM | 16 µM | 31.6 µM | 5.71 µM | 19.2 µM |
| COc1cc(C)c(C2NC(=O)c3ccccc3N2)cc1C (centres undefined) | – | > 52.2 µM | – | > 100 µM | – | 0.908 µM | – | 13.9 µM | – | 26.5 µM | – | > 100 µM | – | 15.6 µM | – | 13.6 µM | – | 22.4 µM | – | > 100 µM |
| COc1cc(NC(=O)CCSc2nc3ccc(C)cc3c(=O)n2Cc2ccccc2)cc(OC)c1OC | > 100 µM | > 100 µM | 4.73 µM | 43.4 µM | 2.18 µM | 6.74 µM | 7.06 µM | 63.1 µM | 5.31 µM | > 100 µM | 27.7 µM | > 100 µM | 5.39 µM | > 100 µM | > 100 µM | > 100 µM | – | – | 78 µM | > 100 µM |
